Earlier results as cited in patent publication US20060135540A1, “PPAR active compounds” (priority 2004, published 2006).

Key:
[1] = patients, large prospective trial
[2] = biological target: T1, PPARδ (Homo sapiens, UniProt Q03181)
T1 sequence (Q03181 1-441): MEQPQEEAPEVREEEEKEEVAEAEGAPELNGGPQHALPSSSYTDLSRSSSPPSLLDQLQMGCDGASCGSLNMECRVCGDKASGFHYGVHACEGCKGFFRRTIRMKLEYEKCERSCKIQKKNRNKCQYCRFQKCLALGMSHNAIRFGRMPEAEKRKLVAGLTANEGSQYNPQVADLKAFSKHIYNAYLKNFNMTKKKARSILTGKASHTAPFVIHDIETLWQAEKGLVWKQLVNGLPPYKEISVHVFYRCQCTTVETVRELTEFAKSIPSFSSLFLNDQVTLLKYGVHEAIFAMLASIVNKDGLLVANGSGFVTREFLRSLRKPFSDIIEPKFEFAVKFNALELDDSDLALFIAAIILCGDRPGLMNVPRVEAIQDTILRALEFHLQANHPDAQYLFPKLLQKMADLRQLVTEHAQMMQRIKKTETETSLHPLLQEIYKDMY

[3] = biological target: T2, murine PPARα (Mus musculus, UniProt P23204)
T2 sequence (P23204 1-468): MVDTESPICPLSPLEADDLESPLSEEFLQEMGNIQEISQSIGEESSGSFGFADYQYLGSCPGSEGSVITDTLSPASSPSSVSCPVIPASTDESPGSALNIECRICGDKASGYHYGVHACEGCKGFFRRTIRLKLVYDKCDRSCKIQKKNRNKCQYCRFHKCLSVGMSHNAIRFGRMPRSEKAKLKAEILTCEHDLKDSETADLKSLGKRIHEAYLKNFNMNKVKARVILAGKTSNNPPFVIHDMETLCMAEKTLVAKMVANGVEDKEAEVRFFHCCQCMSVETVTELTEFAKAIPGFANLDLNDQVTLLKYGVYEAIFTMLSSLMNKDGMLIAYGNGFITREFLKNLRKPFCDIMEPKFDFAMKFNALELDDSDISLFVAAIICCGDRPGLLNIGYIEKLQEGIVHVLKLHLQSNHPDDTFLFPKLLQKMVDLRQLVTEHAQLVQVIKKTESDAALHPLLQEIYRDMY

SMILES | reduction in cardiovascular events or death [1] [%] | agonist selectivity for PPARδ over PPARγ [2] | activity on murine PPARα [3]
Cc1ccc(C)c(OCCCC(C)(C)C(=O)O)c1 [gemfibrozil] | 22 | – | –
CCCc1c(OCCCOc2ccc(OCC(=O)O)cc2)ccc(C(C)=O)c1O [Compound L-165041] | – | approximately 30 fold | inactive
